Target: T1, isomerase (Mus musculus, UniProt Q91ZQ5)
T1 construct: from tissue; host or cells: eyes of living CD-1 (and Balb/c) mice, endogenous protein
T1 sequence (Q91ZQ5 1-533): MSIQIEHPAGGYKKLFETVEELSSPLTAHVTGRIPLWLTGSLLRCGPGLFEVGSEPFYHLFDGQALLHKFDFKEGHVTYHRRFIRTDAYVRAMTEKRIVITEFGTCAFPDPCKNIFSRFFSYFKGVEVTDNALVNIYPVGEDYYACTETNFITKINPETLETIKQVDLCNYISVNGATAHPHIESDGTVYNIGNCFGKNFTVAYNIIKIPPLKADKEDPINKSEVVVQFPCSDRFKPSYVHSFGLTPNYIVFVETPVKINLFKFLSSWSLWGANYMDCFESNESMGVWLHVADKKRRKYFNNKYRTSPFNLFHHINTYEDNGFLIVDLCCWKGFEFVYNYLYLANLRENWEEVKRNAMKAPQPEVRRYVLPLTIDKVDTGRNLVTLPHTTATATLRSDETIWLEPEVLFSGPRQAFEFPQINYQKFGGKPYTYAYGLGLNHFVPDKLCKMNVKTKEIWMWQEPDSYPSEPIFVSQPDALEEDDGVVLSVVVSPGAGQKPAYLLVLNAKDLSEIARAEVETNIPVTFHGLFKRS
Assay: In vivo murine isomerase assay (recovery of 11-cis-retinal after photobleaching)
Conditions: po, mice, oral gavage
Method: The capability of compounds described herein to inhibit isomerase was determined by an in vivo murine isomerase assay. Brief exposure of the eye to intense light (“photobleaching” of the visual pigment or simply “bleaching”) is known to photo-isomerize almost all 11-cis-retinal in the retina. The recovery of 11-cis-retinal after bleaching was used to estimate the activity of isomerase in vivo. Delayed recovery, as represented by lower 11-cis-retinal oxime levels, indicates inhibition of isomerization reaction. Procedures were performed essentially as described by Golczak et al., Proc. Natl. Acad. Sci. USA 102:8162-67 (2005). See also Deigner et al., Science, 244: 968-71 (1989); Gollapalli et al., Biochim Biophys Acta. 1651: 93-101 (2003); Parish, et al., Proc. Natl. Acad. Sci. USA, 14609-13 (1998); Radu, et al., Proc Natl Acad Sci USA 101: 5928-33 (2004).
Six-week old dark-adapted CD-1 (albino) male mice were orally gavaged with compound (0.03-3 mg/kg) dissolved in 100 μl corn oil containing 10% ethanol (five animals per group). After 2-24 hours in the dark, the mice were exposed to photobleaching of 5,000 lux of white light for 10 minutes. The mice were allowed to recover 2 hours in the dark. The animals were then sacrificed by carbon dioxide inhalation. Retinoids were extracted from the eye and the regeneration of 11-cis-retinal was assessed at various time intervals.
All steps were performed in darkness with minimal redlight illumination (low light darkroom lights and red-filtered flashlights for spot illumination as needed) (see, e.g., Maeda et al., J. Neurochem 85:944-956, 2003; Van Hooser et al., J Biol Chem 277:19173-82, 2002). After the mice were sacrificed, the eyes were immediately removed and placed in liquid nitrogen for storage.
The eyes were placed in 500 μL of bis-tris propane buffer (10 mM, pH ˜7.3) and 20 μL of 0.8M hydroxile amine (pH˜7.3). The eyes were cut up into small pieces with small iris scissors and then thoroughly homogenized at 30000 rpm with a mechanical homogenizer (Polytron PT 1300 D) in the tube until no visible tissue remained. 500 μL of methanol and 500 μL of heptane were added to each tube. The tubes were attached to a vortexer so that the contents were mixed thoroughly for 15 minutes in room temperature. The organic phase was separated from the aqueous phase by centrifugation for 10 min at 13K rpm, 4° C. 240 μL of the solution from the top layer (organic phase) was removed and transferred to clean 300 μl glass inserts in HPLC vials using glass pipette and the vials were crimped shut tightly.
The samples were analyzed on an Agilent 1100 HPLC system with normal phase column: SILICA (Beckman Coutlier, dp 5 μm, […]). […] Loading volume for each sample was 100 μl; detection wavelength is 360 nm. The area under the curve for 11-cis retinal oxime was calculated by Agilent Chemstation software and was recorded manually. Data processing was performed using Prizm software.
Positive control mice (no compound administered) were sacrificed fully dark-adapted and the eye retinoids analyzed. Light (bleached) control mice (no compound administered) were sacrificed and retinoids isolated and analyzed immediately after light treatment.
A time course study was performed to determine the isomerase inhibitory activity of the test compound. Male Balb/c mice (4/group) receive test compound orally by gavage. The animals were then “photo-bleached” (5000 Lux white light for 10 minutes) at 2, 4, 8, 16 and 24 hours after dosing, and returned to darkness to allow recovery of the 11-cis-retinal content of the eyes. Mice were sacrificed 2 hours after bleaching, eyes were enucleated, and retinoid content was analyzed by HPLC.
Recovery control mice (vehicle-only treated) were light-treated and left to recover for 2 hours in the dark before sacrifice and analysis. Light control mice (vehicle only treated) were sacrificed for analysis immediately after photo-bleaching.

SMILES | inhibition at 1 mg/kg (Time 2 hour) | inhibition at 1 mg/kg (Time 4 hour) | further results
NCCC(O)c1ccc(OCC2CCCCC2)s1 (centres unmarked) [Example 1, 3-Amino-1-(5-(cyclohexylmethoxy)thiophen-2-yl)propan-1-ol] | 0% | 0% | 
NCCC(O)c1cccc(/C=C/C2CCCCC2)n1 (centres unmarked) [Example 3, (E)-3-Amino-1-(6-(2-cyclohexylvinyl)pyridin-2-yl)propan-1-ol] | 0% |  | 
NCCC(O)c1cccc(CCC2CCCCC2)n1 (centres unmarked) [Example 4, 3-Amino-1-(6-(2-cyclohexylethyl)pyridin-2-yl)propan-1-ol] | 29.3 ± 4.3% |  | 
NCC[C@@H](O)c1ccc(OCC2CCCCC2)s1 [Example 5, (R)-3-Amino-1-(5-(cyclohexylmethoxy)thiophen-2-yl)propan-1-ol] | 0% |  | 
NCC[C@@H](O)c1cccc(OCC2CCCCC2)n1 [Example 6, (R)-3-Amino-1-(6-(cyclohexylmethoxy)pyridin-2-yl)propan-1-ol] | 68.9 ± 6.5% | 37.7 ± 14.9% | inhibition at 3 mg/kg (Time 2 hour): 93.2 ± 0.9%; inhibition at 3 mg/kg (Time 4 hour): 85.5 ± 2.9%; inhibition at 3 mg/kg (Time 6 hour): 62.3 ± 3.8%; inhibition at 3 mg/kg (Time 8 hour): 30.8 ± 9.9%; inhibition at 3 mg/kg (Time 16 hour): 0%; inhibition at 3 mg/kg (Time 24 hour): 0%
NCCC(O)c1cc(C#CC2(O)CCCCC2)cs1 (centres unmarked) [Example 9, 1-((5-(3-Amino-1-hydroxypropyl)thiophen-3-yl)ethynyl)cyclohexanol] | 8.6 ± 4.2% |  | 
NCCC(O)c1cc(OCC2CCCCC2)ccn1 (centres unmarked) [Example 12, 3-Amino-1-(4-(cyclohexylmethoxy)pyridin-2-yl)propan-1-ol] | 0% |  | 
CCCC(CCC)COc1cccc([C@H](O)CCN)n1 [Example 19, (R)-3-Amino-1-(6-((2-propylpentyl)oxy)pyridin-2-yl)propan-1-ol] |  | 98.2 ± 2.3% | inhibition at 1 mg/kg (Time 8 hour): 90.7 ± 3.3%

Reference: patent publication US9447078B2, “Substituted heterocyclic compounds for disease treatment” (Acucela Inc., priority 2012, dated 2016)
